Data reported in ChEMBL document CHEMBL3132761, “Construction of phenoxazine rings containing nitro and sulfonic acid groups leading to phenoxazine-3-sulfonamide derivatives: their evaluation as novel and potential insulin secretagogues” (Medchemcomm, 2014).
Calls of active or inactive are those of the source. The rule behind the calls is not given here.

Key:
[1] = tested on: Rattus norvegicus; test: Hypoglycemic activity in 18 hrs fasted Wistar albino rat assessed as reduction of blood glucose level at 10 mg/kg, po after 6 hrs (reference value: 101.01 +/- 1.60 mg/dl); format: functional
[2] = tested on: Rattus norvegicus; test: Hypoglycemic activity in 18 hrs fasted Wistar albino rat assessed as reduction of blood glucose level at 10 mg/kg, po after 4 hrs (reference value: 97.13 +/- 2.89 mg/dl); format: functional
[3] = tested on: Rattus norvegicus; test: Hypoglycemic activity in 18 hrs fasted Wistar albino rat assessed as reduction of blood glucose level at 10 mg/kg, po after 2 hrs (reference value: 101.03 +/- 1.93 mg/dl); format: functional
[4] = tested on: Hepatocyte; test: Cytotoxicity against rat primary hepatocytes after 16 hrs; format: cell-based
[5] = tested on: Hepatocyte; test: Cytotoxicity against rat primary hepatocytes after 6 hrs; format: cell-based
[6] = tested on: Rattus norvegicus; test: Hypoglycemic activity in over night fasted Wistar albino rat assessed as reduction of blood glucose level at 10 mg/kg, po administered 30 mins before glucose challenge measured after 30 mins by intraperitoneal glucose tolerance test (reference value: 109.28 +/- 20.53 mg/dl); format: functional
[7] = tested on: Rattus norvegicus; test: Hypoglycemic activity in over night fasted Wistar albino rat assessed as reduction of blood glucose level at 10 mg/kg, po administered 30 mins before glucose challenge measured after 60 mins by intraperitoneal glucose tolerance test (reference value: 106.07 +/- 13.98 mg/dl); format: functional
[8] = tested on: Rattus norvegicus; test: Hypoglycemic activity in over night fasted Wistar albino rat assessed as reduction of blood glucose level at 10 mg/kg, po administered 30 mins before glucose challenge measured after 120 mins by intraperitoneal glucose tolerance test (reference value: 101.07 +/- 8.98 mg/dl); format: functional
[9] = tested on: Rattus norvegicus; test: Hypoglycemic activity in over night fasted Wistar albino rat assessed as reduction of blood glucose level at 10 mg/kg, po administered 30 mins before glucose challenge measured after 90 mins by intraperitoneal glucose tolerance test (reference value: 94.44 +/- 6.99 mg/dl); format: functional
[10] = tested on: Rattus norvegicus; test: Antidiabetic activity in streptozotocin-nicotinamide-induced diabetic model of Wistar albino rat assessed as reduction of blood glucose level at 10 mg/kg, po after 2 hrs relative to control; format: functional
[11] = tested on: Rattus norvegicus; test: Antidiabetic activity in streptozotocin-nicotinamide-induced diabetic model of Wistar albino rat assessed as reduction of blood glucose level at 10 mg/kg, po after 8 hrs relative to control; format: functional
[12] = tested on: Rattus norvegicus; test: Antidiabetic activity in streptozotocin-nicotinamide-induced diabetic model of Wistar albino rat assessed as reduction of blood glucose level at 10 mg/kg, po after 1 hr relative to control; format: functional
[13] = tested on: Rattus norvegicus; test: Antidiabetic activity in streptozotocin-nicotinamide-induced diabetic model of Wistar albino rat assessed as reduction of blood glucose level at 10 mg/kg, po after 6 hrs relative to control; format: functional
[14] = tested on: Rattus norvegicus; test: Antidiabetic activity in streptozotocin-nicotinamide-induced diabetic model of Wistar albino rat assessed as reduction of blood glucose level at 10 mg/kg, po after 4 hrs relative to control; format: functional
[15] = tested on: Rattus norvegicus; test: Antidiabetic activity in streptozotocin-nicotinamide-induced diabetic model of Wistar albino rat assessed as reduction of blood glucose level at 10 mg/kg, po administered for 14 days measured on day 14 after 1 to 8 hrs relative to control; format: functional
[16] = tested on: Rattus norvegicus; test: Antidiabetic activity in streptozotocin-nicotinamide-induced diabetic model of Wistar albino rat assessed as reduction of blood glucose level at 10 mg/kg, po administered for 14 days measured on day 7 after 1 to 8 hrs relative to control; format: functional
[17] = tested on: Rattus norvegicus; test: Hypolipidemic activity in Wistar albino rat assessed as reduction of serum triglyceride level at 10 mg/kg, po administered for 14 days measured on day 14 after 1 to 8 hrs relative to control; format: functional
[18] = tested on: Rattus norvegicus; test: Antidiabetic activity in streptozotocin-nicotinamide-induced diabetic model of Wistar albino rat assessed as granulated pancreatic islets with prominent hyperplasticity at 10 mg/kg, po administered for 14 days measured on day 14 relative to control; format: functional, organism-based; parameters: dose 10 mg/kg
[19] = tested on: Rattus norvegicus; test: Hypolipidemic activity in Wistar albino rat assessed as reduction of total cholesterol level at 10 mg/kg, po administered for 14 days measured on day 14 after 1 to 8 hrs relative to control; format: functional
[20] = tested on: Rattus norvegicus; test: Antidiabetic activity in Wistar albino rat assessed as reversal of diabetic-induced muscle wasting by measuring increase in body weight at 10 mg/kg, po administered for 14 days measured on day 14 relative to control; format: functional
[21] = tested on: Rattus norvegicus; test: Antidiabetic activity in Wistar albino rat assessed as reversal of diabetic-induced SGOT level in liver at 10 mg/kg, po administered for 14 days measured on day 14 relative to control; format: functional
[22] = tested on: Rattus norvegicus; test: Antidiabetic activity in Wistar albino rat assessed as reversal of diabetic-induced SGPT level in liver at 10 mg/kg, po administered for 14 days measured on day 14 relative to control; format: functional

Row | Compound | Activity [1] [mg/dL] | Activity [2] [mg/dL] | Activity [3] [mg/dL] | Activity [6] [mg/dL] | Activity [7] [mg/dL] | Activity [8] [mg/dL] | Activity [9] [mg/dL] | further results
1 | O=[N+]([O-])c1cc(S(=O)(=O)Nc2ccccc2O)cc2c1Nc1ccccc1O2 | 88.88 | 85 | 71.38 | – | – | – | – | –
2 | O=[N+]([O-])c1cc(S(=O)(=O)N2CCCCC2)cc2c1Nc1ccccc1O2 | 78.41 | 69.35 | 72.67 | – | – | – | – | –
3 | CCN(CC)S(=O)(=O)c1cc2c(c([N+](=O)[O-])c1)Nc1ccccc1O2 | 118.75 | 113.54 | 122.92 | – | – | – | – | –
4 | CN(CCOc1ccc(CC2SC(=O)NC2=O)cc1)c1ccccn1 (stereo not given) [ROSIGLITAZONE] | – | – | – | – | – | – | – | IC50 [4]: 165 µM; IC50 [5]: 225 µM
5 | O=[N+]([O-])c1cc(S(=O)(=O)N2CCOCC2)cc2c1Nc1ccccc1O2 | 65.27 | 61.56 | 59.35 | – | – | – | – | –
6 | NS(=O)(=O)c1cc2c(c([N+](=O)[O-])c1)Nc1ccccc1O2 | 51.04 | 69.79 | 65.62 | 124.2 | 112.31 | 122.85 | 105.72 | –
7 | Cc1ccccc1NS(=O)(=O)c1cc2c(c([N+](=O)[O-])c1)Nc1ccccc1O2 | 87.93 | 73.33 | 52.43 | 123.21 | 100.44 | 100 | 97.32 | –
8 | O=[N+]([O-])c1cc(S(=O)(=O)Nc2ccc(Br)cc2)cc2c1Nc1ccccc1O2 | 89.58 | 85.42 | 95.31 | 148.35 | 111.4 | 119.64 | 137.5 | Activity [10]: 145.6 mg/dL; Activity [11]: 172.2 mg/dL; Activity [12]: 165.8 mg/dL; Activity [13]: 165.6 mg/dL; Activity [14]: 157.5 mg/dL
9 | COc1ccc(Cl)cc1C(=O)NCCc1ccc(S(=O)(=O)NC(=O)NC2CCCCC2)cc1 [GLYBURIDE] | 69.01 | 63.73 | 90.2 | 107.85 | 89 | 91.78 | 77.5 | Activity [10]: 101.9 mg/dL; Activity [11]: 151.9 mg/dL; Activity [15]: 88.3 mg/dL; Activity [16]: 93.3 mg/dL; Activity [17]: 61 mg/dL; Activity [18]: Active; Activity [12]: 147.2 mg/dL; Activity [19]: 57.8 mg/dL; Activity [20]: 244 g; Activity [13]: 127.2 mg/dL; Activity [21]: 45.8 U/dl; Activity [22]: 42 U/dl; Activity [14]: 107.5 mg/dL
10 | CC(C)N(C(C)C)S(=O)(=O)c1cc2c(c([N+](=O)[O-])c1)Nc1ccccc1O2 | 69.44 | 63.05 | 67.5 | – | – | – | – | –
11 | O=[N+]([O-])c1cc(S(=O)(=O)Nc2ccccc2)cc2c1Nc1ccccc1O2 | 118.22 | 100 | 102.6 | – | – | – | – | –
12 | COc1ccc(CNS(=O)(=O)c2cc3c(c([N+](=O)[O-])c2)Nc2ccccc2O3)cc1 | 85.93 | 102.08 | 102.6 | – | – | – | – | –
13 | O=[N+]([O-])c1cc(S(=O)(=O)NCc2ccco2)cc2c1Nc1ccccc1O2 | 100.76 | 86.36 | 96.21 | 115.43 | 81.89 | 83.89 | 80 | –
14 | Cc1ccc(NS(=O)(=O)c2cc3c(c([N+](=O)[O-])c2)Nc2ccccc2O3)c(C)c1 | 85.42 | 89.88 | 93.55 | – | – | – | – | –
15 | O=[N+]([O-])c1cc(S(=O)(=O)NC2CCCCC2)cc2c1Nc1ccccc1O2 | 90.2 | 85.63 | 90.22 | – | – | – | – | –
16 | O=[N+]([O-])c1cc(S(=O)(=O)NCc2cccs2)cc2c1Nc1ccccc1O2 | 84.37 | 114.06 | 86.45 | – | – | – | – | –
17 | CCCNS(=O)(=O)c1cc2c(c([N+](=O)[O-])c1)Nc1ccccc1O2 | 98.7 | 88.7 | 75.48 | – | – | – | – | –
18 | COc1ccc(NS(=O)(=O)c2cc3c(c([N+](=O)[O-])c2)Nc2ccccc2O3)cc1 | 74.47 | 120.31 | 116.66 | 130.35 | 96.07 | 107.14 | 91.42 | –
19 | CC(NS(=O)(=O)c1cc2c(c([N+](=O)[O-])c1)Nc1ccccc1O2)c1ccccc1 (stereo not given) | 94.28 | 77.74 | 78.26 | – | – | – | – | –
20 | CC(C)c1ccc(NS(=O)(=O)c2cc3c(c([N+](=O)[O-])c2)Nc2ccccc2O3)cc1 | 91.74 | 86.45 | 74.28 | 124.33 | 96.66 | 106 | 98 | –
21 | O=[N+]([O-])c1cc(S(=O)(=O)Nc2cccc(F)c2)cc2c1Nc1ccccc1O2 | 93.94 | 87.88 | 95.45 | – | – | – | – | –
22 | O=[N+]([O-])c1cc(S(=O)(=O)Nc2ccc(Cl)cc2)cc2c1Nc1ccccc1O2 | 60.93 | 91.66 | 106.25 | 100.36 | 106.23 | 76.9 | 93.77 | –
